Laboratory results as given in patent publication US20140066370A1, “Polypeptide Conjugate” (priority 2009, published 2014).
Like-named read-outs stand apart in the source and are kept apart here. Marks after values point to notes of the source that are not given here.

Experiments:
[1] = tested on: rats; test: acute kaolin intake (pica, nausea) and chow intake in rats; assay type: in vivo, rat; conditions: 30 nmol/kg/d, 24 hr post injection
Experimental: To investigate possible nausea effects of the conjugate polypeptide, acute kaolin intake was measured in rats. Pica behavior (ingestion of dirt/clay) is a marker of nausea in rodents, typically associated with reduced food intake and weight loss. Pica can be assessed by measuring intake of the synthetic clay kaolin. […] Rats were acclimated to kaolin for 3 days as kaolin clay mixed in with regular chow. A 4 hr and a 24 hr baseline kaolin and chow intake were then measured. Subsequently, rats were fasted for approximately 16 hrs after which test compound was injected at the dose indicated below. At 24 hr post injection chow and kaolin consumption was measured.

[2] = tested on: NIH/Swiss female mice; test: basal glucose lowering assay (Oral Glucose Tolerance Test; OGTT); assay type: in vivo, mouse; conditions: IP at t=-5 min, 4-hour fasted mice, glucose gavage […], blood glucose at t=30 minutes
Experimental: Polypeptide Conjugates and parent compounds were analyzed in an in vivo basal glucose lowering assay. This assay reflects the conjugate polypeptide's ability to enhance insulin-mediated glucose clearance of orally administered glucose challenge (Oral Glucose Tolerance Test; OGTT). The OGTT is used to diagnose diabetes, although the simpler fasting plasma glucose test, which measures a subject's plasma glucose level after fasting for at least eight hours, is preferred. The following procedure was used: Test compound at various concentrations was injected intraperitoneally (IP) at t=−5 min to 4-hour fasted NIH/Swiss female mice. Glucose gavage (1.5 g/kg) was given at t=0. Sample was taken at t=30 minutes as tail blood glucose using a OneTouch® Ultra® (LifeScan, Inc., Milpitas, Calif.). Significant effects were identified by ANOVA (p<0.05), followed by Dunnett's post test using GraphPad Prism version 4.00 for Windows (GraphPad Software, San Diego Calif.).

[3] = tested on: diet-induced obese (DIO) male Sprague Dawley rats; test: DIO rat 4-week sc infusion: body composition by NMR; assay type: in vivo
Experimental: (§1) Various metabolic and PK parameters were evaluated.
(§2) Study Design. The Polypeptide Conjugates were tested relative to vehicle (50% DMSO in sterile water) and parent compounds alone and in combination (see Table 1).
(§3) Food intake and body weight were measured weekly. Body composition was assessed on day −1 and day 28 using an NMR instrument (Echo Medical Systems, Houston, Tex.). Adiposity (percent fat mass) was defined as the amount of fat mass relative to body weight (fat mass/body weight×100). Blood was collected via tail vein on day 14. On day 28 a sample of blood was drawn via the jugular vein and animals were euthanized by isoflurane overdose. Mini-pumps were immediately removed, animals were subjected to a brief NMR scan, and tissues were collected for future histological examination and preliminary toxicological assessment.
(§4) Statistical Analysis. Data were analyzed using one-way analysis of variance (ANOVA) with Newman-Keuls post-hoc comparisons. Significance was assumed for p<0.05. Graphs were generated using Prism 4 for Windows (Graphpad Software, San Diego, Calif.). All data points are expressed as mean±SEM.
To correct for loss of body weight, reductions in fat and lean mass were adjusted for terminal body weight to calculate the change in adiposity (percent fat mass) and change in percent lean mass.

[4] = tested on: ob/ob mice; test: 28 days of exposure in ob/ob mice (obese and diabetic); assay type: in vivo, mouse
[5] = DIO rats, sc infusion
Experimental: as §1, §2, §3
(§5) Hormone and metabolite analyses. Plasma levels of study drug were measured at day 14 and termination by an ELISA. Whole blood percent hemoglobin A1c (% HbA1c), plasma triglyceride, total cholesterol, HDL cholesterol and plasma glucose at day 14 and at termination were measured using an Olympus bioanalyzer (Olympus America Diagnostics). Plasma insulin levels at day 14 and at termination were analyzed by an ELISA kit (Rat/Mouse Insulin ELISA, Linco Diagnostics).

[6] = acute reduction of food intake; assay type: in vivo
[7] = tested on: male Sprague Dawley rats; test: delay of gastric emptying (acetaminophen appearance in plasma); assay type: in vivo, rat; conditions: 1 nmol/kg single sc injection
Experimental: Polypeptide Conjugates and parent compounds were analyzed for their ability to delay gastric emptying in rats. […] Rats then received an oral gavage of 33 mg acetaminophen/1 ml Orablend (Paddock Laboratories, Inc., MN USA) at t=3.5 hr, 5.5 hr or 7.5 hr post-injection. Blood was collected for measurement of acetaminophen at 4 hr, 6 hr or 8 hr after SC injection. Gastric emptying was assessed by the appearance of acetaminophen in plasma 30 min after oral gavage.

[8] = tested on: diet-induced obese (DIO) male Sprague Dawley rats; test: DIO rat 4-week sc infusion: hormone and metabolite analyses (HbA1c, insulin, lipids, glucose); assay type: in vivo; conditions: for Insulin 14 day / Insulin 28 day: fed state plasma; for Glucose / HDL cholesterol / Total cholesterol / Triglycerides: plasma after 28 days
Experimental: as §1, §2, §3, §4, §5
Plasma parameters. The effects of the parent and Polypeptide Conjugate compounds on the following plasma parameters were determined: percent hemoglobin A1c (HbA1c), fed state plasma insulin, and concentration of the Polypeptide Conjugate in plasma, at 14 and 28 days.

[9] = human plasma, 5 hr incubation; detection limit 10%

## HGEGTFTSDLSKQLEEEAVRLFIEWLKQGGPSKEIISGGGKCNTATCVLGRLSQELHRLQ TYPRTNTGSNTY-NH2 [Cmpd 2A]
[1]
  Inhibited food intake: Yes ~68%
  Kaolin intake: 0.3 g
[2]
  ED50 in OGTT: 1.4 nmol/kg
[3]; 3 nmol/kg/d, day 28
  Terminal Fat Mass: 71.4 ± 12.9^a,b g
  Terminal Lean Mass: 330.5 ± 7.3^a,b g
[3]; 10 nmol/kg/d, day 28
  Terminal Fat Mass: 35.8 ± 7.7^c,d g
  Terminal Lean Mass: 280.6 ± 22.6^b g
[3]; 30 nmol/kg/d, day 28
  Terminal Fat Mass: 32.4 ± 3.8^c,d g
  Terminal Lean Mass: 306.5 ± 13.2^a,b g
[3]; 100 nmol/kg/d, day 28
  Terminal Fat Mass: 12.7 ± 4.3^d g
  Terminal Lean Mass: 277.8 ± 17.8^b g
  change in adiposity (percent fat mass): −12.2±1.3%
[3]; all doses of Table 1, day 28
  adiposity compared to vehicle controls: significantly reduced
[3]; all doses, day 28
  percent lean mass relative to vehicle controls: did not alter percent lean mass
[4]
  HbA1c: HbA1c reduction
  body weight: body weight loss
  fasted blood glucose: fasted blood glucose-lowering
[5]; 3 nmol/kg/day
  plasma drug level (Cmpd 2A or Cmpd 1A) 14 day: 15 ± 6^a ng/mL
  plasma drug level (Cmpd 2A or Cmpd 1A) 28 day: 65 ± 35^a ng/mL
[5]; 10 nmol/kg/day
  plasma drug level (Cmpd 2A or Cmpd 1A) 14 day: 48 ± 16^a ng/mL
  plasma drug level (Cmpd 2A or Cmpd 1A) 28 day: 345 ± 67^a ng/mL
[5]; 30 nmol/kg/day
  plasma drug level (Cmpd 2A or Cmpd 1A) 14 day: 65 ± 7^a ng/mL
  plasma drug level (Cmpd 2A or Cmpd 1A) 28 day: 540 ± 232^a ng/mL
[5]; 100 nmol/kg/day
  plasma drug level (Cmpd 2A or Cmpd 1A) 14 day: 284 ± 79^b ng/mL
  plasma drug level (Cmpd 2A or Cmpd 1A) 28 day: 1985 ± 717^b ng/mL
[6]
  potency at reducing food intake acutely compared with Cmpd 3A: more potent
[7]; 4 hr
  Percent Inhibition of Gastric Emptying 4 hr: 79
[7]; 6 hr
  Percent Inhibition of Gastric Emptying 6 hr: 49
[7]; 8 hr
  Percent Inhibition of Gastric Emptying 8 hr: 4
[8]; 3 nmol/kg/day
  HbA1c 14 day: 4.9 ± 0.1%
  Insulin 14 day: 1.8 ± 0.6^b ng/mL
  HbA1c 28 day: 4.6 ± 0.1%
  Insulin 28 day: 2.2 ± 0.9 ng/mL
  Glucose: 132 ± 9 mg/dL
  HDL cholesterol: 33 ± 2 mg/dL
  Total cholesterol: 116 ± 8 mg/dL
  Triglycerides: 295 ± 75^b mg/dL
[8]; 10 nmol/kg/day
  HbA1c 14 day: 4.9 ± 0.1^b %
  Insulin 14 day: 1.5 ± 0.2^b ng/mL
  HbA1c 28 day: 4.6 ± 0.1%
  Insulin 28 day: 1.0 ± 0.2 ng/mL
  Glucose: 115 ± 6 mg/dL
  HDL cholesterol: 33 ± 5 mg/dL
  Total cholesterol: 115 ± 14 mg/dL
  Triglycerides: 146 ± 41^b mg/dL
[8]; 30 nmol/kg/day
  HbA1c 14 day: 4.8 ± 0.1%
  Insulin 14 day: 1.8 ± 0.5^b ng/mL
  HbA1c 28 day: 4.6 ± 0.1%
  Insulin 28 day: 0.8 ± 0.1 ng/mL
  Glucose: 111 ± 2 mg/dL
  HDL cholesterol: 32 ± 1 mg/dL
  Total cholesterol: 112 ± 4 mg/dL
  Triglycerides: 128 ± 25^b mg/dL
[8]; 100 nmol/kg/day
  HbA1c 14 day: 4.8 ± 0.1%
  Insulin 14 day: 1.2 ± 0.2^b ng/mL
  HbA1c 28 day: 4.5 ± 0.1%
  Insulin 28 day: 0.7 ± 0.1 ng/mL
  Glucose: 110 ± 4 mg/dL
  HDL cholesterol: 30 ± 1 mg/dL
  Total cholesterol: 107 ± 3 mg/dL
  Triglycerides: 139 ± 17^b mg/dL
[9]
  metabolites detected: No metabolites were detected
